{"source": "patent US8658604B2", "about": "“Template-fixed beta-hairpin peptidomimetics with protease inhibitory activity” (Polyphor Ltd, priority 2005, dated 2014)", "note": "Where a SMILES comes first, the peptide text is derived from it.", "data": [{"target": "T1, Elastase from human neutrophils (Homo sapiens, UniProt P08246)", "T1 sequence (P08246 30-267)": "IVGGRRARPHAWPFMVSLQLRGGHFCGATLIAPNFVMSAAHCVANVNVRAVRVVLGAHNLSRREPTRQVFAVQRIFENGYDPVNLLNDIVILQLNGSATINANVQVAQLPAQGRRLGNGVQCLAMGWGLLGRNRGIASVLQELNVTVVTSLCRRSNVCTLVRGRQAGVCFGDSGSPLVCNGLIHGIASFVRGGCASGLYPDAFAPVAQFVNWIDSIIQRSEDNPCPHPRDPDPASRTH", "assay": "Enzymatic assay, elastase", "settings": "Elastase IC50", "units": {"IC50": "nM"}, "values": [{"smiles": "CCCCCCCC[C@@H]1NC(=O)[C@@H]2CCCN2C(=O)[C@H]2CCCN2C(=O)[C@H](CCC(N)=O)NC(=O)[C@@H]2CSSC[C@H](NC1=O)C(=O)N[C@@H]([C@@H](C)O)C(=O)N[C@@H](C)C(=O)N[C@@H](CO)C(=O)N[C@@H]([C@@H](C)CC)C(=O)N1CCC[C@H]1C(=O)N1CCC[C@H]1C(=O)N[C@@H](CCC(N)=O)C(=O)N2", "note": "[Ex. 149] (HELM PEPTIDE1{[CCCCCCCC[C@H](N[*:1])C(=O)[*:2]].C.T.A.S.I.P.P.Q.C.Q.[dP].P}$PEPTIDE1,PEPTIDE1,2:R3-10:R3|PEPTIDE1,PEPTIDE1,1:R1-13:R2$$$V2.0)", "IC50": 11}, {"smiles": "CCCCCCCC[C@@H]1NC(=O)[C@@H]2CCCN2C(=O)[C@H]2CCCN2C(=O)[C@H](Cc2ccc(O)cc2)NC(=O)[C@@H]2CSSC[C@H](NC1=O)C(=O)N[C@@H]([C@@H](C)O)C(=O)N[C@@H](C)C(=O)N[C@@H](CO)C(=O)N[C@@H](CC1CCCCC1)C(=O)N1CCC[C@H]1C(=O)N1CCC[C@H]1C(=O)N[C@@H](CCC(N)=O)C(=O)N2", "note": "[Ex. 150] (HELM PEPTIDE1{[CCCCCCCC[C@H](N[*:1])C(=O)[*:2]].C.T.A.S.[Cha].P.P.Q.C.Y.[dP].P}$PEPTIDE1,PEPTIDE1,2:R3-10:R3|PEPTIDE1,PEPTIDE1,1:R1-13:R2$$$V2.0)", "IC50": 10}, {"smiles": "CCCCCCCC[C@@H]1NC(=O)[C@H](CO)NC(=O)[C@H](C)NC(=O)[C@H]([C@@H](C)O)NC(=O)[C@@H]2CSSC[C@H](NC(=O)[C@H](CCC(N)=O)NC(=O)[C@@H]3CCCN3C(=O)[C@@H]3CCCN3C1=O)C(=O)N[C@@H](Cc1ccccc1)C(=O)N1CCC[C@@H]1C(=O)N1CCC[C@H]1C(=O)N[C@@H](CCc1ccccc1)C(=O)N2", "note": "[Ex. 152] (HELM PEPTIDE1{[O=C([C@H](CCc1ccccc1)N[*:1])[*:2]].C.T.A.S.[CCCCCCCC[C@H](N[*:1])C(=O)[*:2]].P.P.Q.C.F.[dP].P}$PEPTIDE1,PEPTIDE1,2:R3-10:R3|PEPTIDE1,PEPTIDE1,1:R1-13:R2$$$V2.0)", "IC50": 9}, {"smiles": "CCCCCCCC[C@@H]1NC(=O)[C@@H]2CCCN2C(=O)[C@H]2CCCN2C(=O)[C@H](Cc2ccccc2)NC(=O)[C@@H]2CSSC[C@H](NC1=O)C(=O)N[C@@H]([C@@H](C)O)C(=O)N[C@@H](C)C(=O)N[C@@H](CO)C(=O)N[C@@H](CC1CCCCC1)C(=O)N1CCC[C@H]1C(=O)N1CCC[C@H]1C(=O)N[C@@H](CCC(N)=O)C(=O)N2", "note": "[Ex. 157] (HELM PEPTIDE1{[CCCCCCCC[C@H](N[*:1])C(=O)[*:2]].C.T.A.S.[Cha].P.P.Q.C.F.[dP].P}$PEPTIDE1,PEPTIDE1,2:R3-10:R3|PEPTIDE1,PEPTIDE1,1:R1-13:R2$$$V2.0)", "IC50": 7}, {"smiles": "CCCCCCCC[C@@H]1NC(=O)[C@@H]2CCCN2C(=O)[C@H]2CCCN2C(=O)[C@H](CCC(N)=O)NC(=O)[C@@H]2CSSC[C@H](NC1=O)C(=O)N[C@@H]([C@@H](C)O)C(=O)N[C@@H](C)C(=O)N[C@@H](CO)C(=O)N[C@@H](CC1CCCCC1)C(=O)N1CCC[C@H]1C(=O)N1CCC[C@H]1C(=O)N[C@@H](CCC(N)=O)C(=O)N2", "note": "[Ex. 159] (HELM PEPTIDE1{[CCCCCCCC[C@H](N[*:1])C(=O)[*:2]].C.T.A.S.[Cha].P.P.Q.C.Q.[dP].P}$PEPTIDE1,PEPTIDE1,2:R3-10:R3|PEPTIDE1,PEPTIDE1,1:R1-13:R2$$$V2.0)", "IC50": 7}, {"smiles": "CCCCCCCC[C@@H]1NC(=O)[C@H](CO)NC(=O)[C@H](C)NC(=O)[C@H]([C@@H](C)O)NC(=O)[C@@H]2CSSC[C@H](NC(=O)[C@H](CCC(N)=O)NC(=O)[C@@H]3CCCN3C(=O)[C@@H]3CCCN3C1=O)C(=O)N[C@@H](Cc1ccc(O)cc1)C(=O)N1CCC[C@@H]1C(=O)N1CCC[C@H]1C(=O)N[C@@H](CCc1ccccc1)C(=O)N2", "note": "[Ex. 161] (HELM PEPTIDE1{[O=C([C@H](CCc1ccccc1)N[*:1])[*:2]].C.T.A.S.[CCCCCCCC[C@H](N[*:1])C(=O)[*:2]].P.P.Q.C.Y.[dP].P}$PEPTIDE1,PEPTIDE1,2:R3-10:R3|PEPTIDE1,PEPTIDE1,1:R1-13:R2$$$V2.0)", "IC50": 6}, {"smiles": "C[C@@H]1NC(=O)[C@H]([C@@H](C)O)NC(=O)[C@@H]2CSSC[C@H](NC(=O)[C@H](CCC(N)=O)NC(=O)[C@@H]3CCCN3C(=O)[C@@H]3CCCN3C(=O)[C@H](CC3CCCCC3)NC(=O)[C@H](CO)NC1=O)C(=O)N[C@@H](Cc1ccc(O)cc1)C(=O)N1CCC[C@@H]1C(=O)N1CCC[C@H]1C(=O)N[C@@H](CCc1ccccc1)C(=O)N2", "note": "[Ex. 162] (HELM PEPTIDE1{[O=C([C@H](CCc1ccccc1)N[*:1])[*:2]].C.T.A.S.[Cha].P.P.Q.C.Y.[dP].P}$PEPTIDE1,PEPTIDE1,2:R3-10:R3|PEPTIDE1,PEPTIDE1,1:R1-13:R2$$$V2.0)", "IC50": 12.5}, {"smiles": "CCCC[C@@H]1NC(=O)[C@H](CCC(N)=O)NC(=O)[C@@H](CCC(N)=O)NC(=O)[C@H](CC2CCCCC2)NC(=O)[C@@H]2CSSC[C@H](NC1=O)C(=O)N[C@@H]([C@@H](C)O)C(=O)N[C@@H](C)C(=O)N[C@@H](CO)C(=O)N[C@@H](CC1CCCCC1)C(=O)N1CCC[C@H]1C(=O)N1CCC[C@H]1C(=O)N[C@@H](CCC(N)=O)C(=O)N2", "note": "[Ex. 171] (HELM PEPTIDE1{[Nle].C.T.A.S.[Cha].P.P.Q.C.[Cha].[dQ].Q}$PEPTIDE1,PEPTIDE1,2:R3-10:R3|PEPTIDE1,PEPTIDE1,1:R1-13:R2$$$V2.0)", "IC50": 13}, {"smiles": "CCCC[C@@H]1NC(=O)[C@H](CCC(N)=O)NC(=O)[C@H]2CCCN2C(=O)[C@H](CCC(N)=O)NC(=O)[C@@H]2CSSC[C@H](NC1=O)C(=O)N[C@@H]([C@@H](C)O)C(=O)N[C@@H](C)C(=O)N[C@@H](CO)C(=O)N[C@@H](CC1CCCCC1)C(=O)N1CCC[C@H]1C(=O)N1CCC[C@H]1C(=O)N[C@@H](CCC(N)=O)C(=O)N2", "note": "[compound 164] (HELM PEPTIDE1{[Nle].C.T.A.S.[Cha].P.P.Q.C.Q.[dP].Q}$PEPTIDE1,PEPTIDE1,2:R3-10:R3|PEPTIDE1,PEPTIDE1,1:R1-13:R2$$$V2.0)", "IC50": 24}, {"smiles": "CCCCCCCC[C@@H]1NC(=O)[C@H](CCC(=O)O)NC(=O)[C@@H](CCCCN)NC(=O)[C@H](Cc2ccc(O)cc2)NC(=O)[C@@H]2CSSC[C@H](NC1=O)C(=O)N[C@@H]([C@@H](C)O)C(=O)N[C@@H](C)C(=O)N[C@@H](CO)C(=O)N[C@@H]([C@@H](C)CC)C(=O)N1CCC[C@H]1C(=O)N1CCC[C@H]1C(=O)N[C@@H](CCC(N)=O)C(=O)N2", "note": "[compound 165] (HELM PEPTIDE1{[CCCCCCCC[C@H](N[*:1])C(=O)[*:2]].C.T.A.S.I.P.P.Q.C.Y.[dK].E}$PEPTIDE1,PEPTIDE1,2:R3-10:R3|PEPTIDE1,PEPTIDE1,1:R1-13:R2$$$V2.0)", "IC50": 22}, {"smiles": "CCCC[C@@H]1NC(=O)[C@H](CCC(N)=O)NC(=O)[C@H]2CCCN2C(=O)[C@H](Cc2ccc(O)cc2)NC(=O)[C@@H]2CSSC[C@H](NC1=O)C(=O)N[C@@H]([C@@H](C)O)C(=O)N[C@@H](C)C(=O)N[C@@H](CO)C(=O)N[C@@H](CC1CCCCC1)C(=O)N1CCC[C@H]1C(=O)N1CCC[C@H]1C(=O)N[C@@H](CCC(N)=O)C(=O)N2", "note": "[compound 170] (HELM PEPTIDE1{[Nle].C.T.A.S.[Cha].P.P.Q.C.Y.[dP].Q}$PEPTIDE1,PEPTIDE1,2:R3-10:R3|PEPTIDE1,PEPTIDE1,1:R1-13:R2$$$V2.0)", "IC50": 16}, {"smiles": "CCCC[C@@H]1NC(=O)[C@H](CCC(N)=O)NC(=O)[C@H]2CCCN2C(=O)[C@H](CC2CCCCC2)NC(=O)[C@@H]2CSSC[C@H](NC1=O)C(=O)N[C@@H]([C@@H](C)O)C(=O)N[C@@H](C)C(=O)N[C@@H](CO)C(=O)N[C@@H](CC1CCCCC1)C(=O)N1CCC[C@H]1C(=O)N1CCC[C@H]1C(=O)N[C@@H](CCC(N)=O)C(=O)N2", "note": "[compound 172] (HELM PEPTIDE1{[Nle].C.T.A.S.[Cha].P.P.Q.C.[Cha].[dP].Q}$PEPTIDE1,PEPTIDE1,2:R3-10:R3|PEPTIDE1,PEPTIDE1,1:R1-13:R2$$$V2.0)", "IC50": 13}]}]}
